In PubChem BioAssay AID256 (DTP/NCI, 2004) one finds T/C data, which are given here for 17 molecules.

This assay concerns CD2F1 mice, L1210 leukemia ip, survival T/C. The experiment in a line: NCI In Vivo Anticancer Drug Screen. Data for tumor model L1210 Leukemia (intraperitoneal) in CD2F1 (CDF1) mice. The note with it: higher = longer survival. In outline:
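Read-out first: treated-group measurement over vehicle-control measurement, expressed as a ratio. Animals bore a transplanted tumor line and were dosed with compound or vehicle.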

Where [1] appears, read: endpoint: mean survival time, dose: 100.0 mg/kg/injection, schedule: Q04DX003 (ip), vehicle: saline with Tween-80.
Setting [2] is: endpoint: mean survival time, dose: 200.0 mg/kg/injection, schedule: Q04DX003 (ip), vehicle: saline with Tween-80.
[3] abbreviates: endpoint: mean survival time, dose: 400.0 mg/kg/injection, schedule: Q04DX003 (ip), vehicle: saline with Tween-80.
[4] abbreviates: endpoint: mean survival time, dose: 50.0 mg/kg/injection, schedule: Q01DX009 (ip), vehicle: saline with Tween-80.
[5] abbreviates: endpoint: mean survival time, dose: 100.0 mg/kg/injection, schedule: Q01DX009 (ip), vehicle: saline with Tween-80.

Molecules are shown by their SMILES. Several values for one entry are separate records, joined by “and”; a condition that tells them apart may be missing. Identical values can stand only once. Inconclusive results and toxic doses are left out.

Regarding `CC(=O)/C(=C\c1ccccc1)CNC1CCCCC1`, the T/C by setting is: (endpoint: mean survival time, dose: 6.25 mg/kg/injection, schedule: Q01DX001 (ip), vehicle: saline with Tween-80) 96 % of control; (endpoint: mean survival time, dose: 12.5 mg/kg/injection, schedule: Q01DX001 (ip), vehicle: saline with Tween-80) 104 % of control.

With `CC(=O)Nc1cc2c3c(c1)CCN3CCC2`, the T/C reads like this: (endpoint: mean survival time, dose: 3.13 mg/kg/injection, schedule: Q01DX001 (ip), vehicle: saline) 100 % of control; (endpoint: mean survival time, dose: 6.25 mg/kg/injection, schedule: Q01DX001 (ip), vehicle: saline) 113 % of control; (endpoint: mean survival time, dose: 12.5 mg/kg/injection, schedule: Q01DX001 (ip), vehicle: saline) 112 % of control.

As for `O=[N+]([O-])c1ccc2c(c1)-c1ccccc1/C2=N\O`, the T/C reads like this: (endpoint: mean survival time, dose: 50.0 mg/kg/injection, schedule: Q01DX001 (ip), vehicle: carboxymethylcellulose (CMC)) 98 % of control; (endpoint: mean survival time, dose: 100.0 mg/kg/injection, schedule: Q01DX001 (ip), vehicle: carboxymethylcellulose (CMC)) 104 % of control; (endpoint: mean survival time, dose: 200.0 mg/kg/injection, schedule: Q01DX001 (ip), vehicle: carboxymethylcellulose (CMC)) 111 % of control; (endpoint: mean survival time, dose: 400.0 mg/kg/injection, schedule: Q01DX001 (ip), vehicle: carboxymethylcellulose (CMC)) 104 % of control.

For the molecule `CC(=O)N(C(C)=O)c1nc(Br)c2ccccc2c1-c1ccc([N+](=O)[O-])cc1`, the T/C by setting is: (endpoint: mean survival time, dose: 50.0 mg/kg/injection, schedule: Q04DX003 (ip), vehicle: other) 100 % of control; (endpoint: mean survival time, dose: 100.0 mg/kg/injection, schedule: Q04DX003 (ip), vehicle: other) 94 % of control; (endpoint: mean survival time, dose: 200.0 mg/kg/injection, schedule: Q04DX003 (ip), vehicle: other) 94 % of control; (endpoint: mean survival time, dose: 400.0 mg/kg/injection, schedule: Q04DX003 (ip), vehicle: other) 88 % of control.

In the case of `N=C(N)SCCSC(=N)N`, the T/C runs as follows: (endpoint: mean survival time, dose: 25.0 mg/kg/injection, schedule: Q01DX009 (ip), vehicle: saline) 92 % of control; (endpoint: mean survival time, dose: 50.0 mg/kg/injection, schedule: Q01DX009 (ip), vehicle: saline) 94 % of control; (endpoint: mean survival time, dose: 100.0 mg/kg/injection, schedule: Q01DX009 (ip), vehicle: saline) 94 % of control; (endpoint: mean survival time, dose: 100.0 mg/kg/injection, schedule: Q04DX003 (ip), vehicle: saline) 100 % of control; (endpoint: mean survival time, dose: 200.0 mg/kg/injection, schedule: Q04DX003 (ip), vehicle: saline) 105 % of control.

Take `CC12CCCC=C1N(C=O)c1ccccc12` (stereo not drawn): the T/C is, setting by setting: (endpoint: mean survival time, dose: 100.0 mg/kg/injection, schedule: Q01DX001 (ip), vehicle: saline) 95 % of control; (endpoint: mean survival time, dose: 200.0 mg/kg/injection, schedule: Q01DX001 (ip), vehicle: saline) 100 % of control; (endpoint: mean survival time, dose: 400.0 mg/kg/injection, schedule: Q01DX001 (ip), vehicle: saline) 95 % of control.

Take `CC(C)(C)n1cc(C(=O)c2ccccc2)cc1-c1ccccc1`: the T/C was 91 % of control under setting [1], 92 % of control under setting [2] and 86 % of control under setting [3].

With `C[CH2][Sn]1([CH2]C)[O]OC(c2ccccc2)[O]1` (stereo not drawn), the T/C by setting is: (endpoint: mean survival time, dose: 0.78 mg/kg/injection, schedule: Q01DX009 (ip), vehicle: saline with Tween-80) 106 % of control; (endpoint: mean survival time, dose: 1.56 mg/kg/injection, schedule: Q01DX009 (ip), vehicle: saline with Tween-80) 96 % of control; (endpoint: mean survival time, dose: 3.12 mg/kg/injection, schedule: Q01DX009 (ip), vehicle: saline with Tween-80) 98 % of control; (endpoint: mean survival time, dose: 6.25 mg/kg/injection, schedule: Q01DX009 (ip), vehicle: saline with Tween-80) 106 % of control; (endpoint: mean survival time, dose: 12.5 mg/kg/injection, schedule: Q01DX009 (ip), vehicle: saline with Tween-80) 112 % of control.

For `c1ccc(P(=N[P+](c2ccccc2)(c2ccccc2)c2ccccc2)(c2ccccc2)c2ccccc2)cc1`, the T/C is, setting by setting: (endpoint: mean survival time, dose: 0.75 mg/kg/injection, schedule: Q01DX009 (ip), vehicle: saline) 106 % of control; (endpoint: mean survival time, dose: 1.5 mg/kg/injection, schedule: Q01DX009 (ip), vehicle: saline) 103 % of control; (endpoint: mean survival time, dose: 3.13 mg/kg/injection, schedule: Q01DX009 (ip), vehicle: saline with Tween-80) 94 % of control; (endpoint: mean survival time, dose: 3.13 mg/kg/injection, schedule: Q04DX002 (ip), vehicle: saline with Tween-80) 102 % of control; (endpoint: mean survival time, dose: 6.25 mg/kg/injection, schedule: Q04DX002 (ip), vehicle: saline with Tween-80) 110 % of control; (endpoint: mean survival time, dose: 12.5 mg/kg/injection, schedule: Q04DX002 (ip), vehicle: saline with Tween-80) 90 % of control and 93 % of control.

`NNC(=O)c1cc(NN)ccn1`: the T/C under setting [4] was 102 % of control, the T/C under setting [5] was 100 % of control, the T/C under setting [1] is 100 % of control and the T/C under setting [2] was 98 % of control.

In the case of `COc1ccc(N=C(N)N=C(N)N)cc1`, the T/C runs as follows: (endpoint: mean survival time, dose: 25.0 mg/kg/injection, schedule: Q01DX009 (ip), vehicle: saline with Tween-80) 102 % of control; under setting [4], 96 % of control; under setting [5], 106 % of control.

Regarding `COc1cc2c(cc1O)NC(OC)C1CC(O)CN1C2=O` (stereo not drawn), the T/C by setting is: (endpoint: median survival time, dose: 0.02 mg/kg/injection, schedule: Q01DX005 (ip), vehicle: DMSO) 101 % of control; (endpoint: median survival time, dose: 0.4 mg/kg/injection, schedule: Q01DX005 (ip), vehicle: DMSO) 102 % of control; (endpoint: median survival time, dose: 0.8 mg/kg/injection, schedule: Q01DX005 (ip), vehicle: DMSO) 100 % of control; (endpoint: median survival time, dose: 1.6 mg/kg/injection, schedule: Q01DX005 (ip), vehicle: DMSO) 102 % of control; (endpoint: median survival time, dose: 3.2 mg/kg/injection, schedule: Q01DX005 (ip), vehicle: DMSO) 111 % of control; (endpoint: median survival time, dose: 6.4 mg/kg/injection, schedule: Q01DX005 (ip), vehicle: DMSO) 115 % of control.

Turning to `CC(=O)CC(=O)OCOC(=O)CC(C)=O`, the T/C was 102 % of control (endpoint: mean survival time, dose: 100.0 mg/kg/injection, schedule: Q04DX003 (ip), vehicle: Klucel (hydroxypropylcellulose) (HPC)); 106 % of control (endpoint: mean survival time, dose: 200.0 mg/kg/injection, schedule: Q04DX003 (ip), vehicle: Klucel (hydroxypropylcellulose) (HPC)); 106 % of control (endpoint: mean survival time, dose: 400.0 mg/kg/injection, schedule: Q04DX003 (ip), vehicle: Klucel (hydroxypropylcellulose) (HPC)).

Turning to `CC(=O)c1cc(C)[nH]c1C`, the T/C under setting [4] was 101 % of control; the T/C under setting [5] is 100 % of control; the T/C under setting [1] was 102 % of control; the T/C (endpoint: mean survival time, dose: 200.0 mg/kg/injection, schedule: Q01DX009 (ip), vehicle: saline with Tween-80) was 103 % of control; the T/C under setting [2] is 96 % of control; the T/C (endpoint: median survival time, dose: 100.0 mg/kg/injection, schedule: Q01DX001 (ip), vehicle: saline with Tween-80) was 100 % of control. Further, the T/C (endpoint: median survival time, dose: 200.0 mg/kg/injection, schedule: Q01DX001 (ip), vehicle: saline with Tween-80) was 100 % of control.

For the molecule `O=C(NC/C(Br)=C/Br)Nc1cccc2c1CCCC2`, the T/C under setting [1] was 96 % of control, the T/C under setting [2] is 101 % of control and the T/C under setting [3] was 90 % of control.

Consider `CC1(C)N=C(N)N=C(N)N1c1ccc(CCCCc2ccc(Cl)c(S(=O)(=O)F)c2)c(Cl)c1`, for which the T/C reads like this: (endpoint: mean survival time, dose: 2.4 mg/kg/injection, schedule: Q01DX009 (ip), vehicle: saline with Tween-80) 101 % of control; (endpoint: mean survival time, dose: 3.6 mg/kg/injection, schedule: Q01DX009 (ip), vehicle: saline with Tween-80) 95 % of control; (endpoint: mean survival time, dose: 5.4 mg/kg/injection, schedule: Q01DX009 (ip), vehicle: saline with Tween-80) 104 % of control; (endpoint: mean survival time, dose: 8.0 mg/kg/injection, schedule: Q01DX009 (ip), vehicle: saline with Tween-80) 106 % of control; (endpoint: mean survival time, dose: 12.0 mg/kg/injection, schedule: Q01DX009 (ip), vehicle: saline with Tween-80) 108 % of control; (endpoint: mean survival time, dose: 18.0 mg/kg/injection, schedule: Q01DX009 (ip), vehicle: saline with Tween-80) 117 % of control. Where the note is “endpoint: mean survival time, dose: 100.0 mg/kg/injection, schedule: Q04DX003 (ip), vehicle: saline sonified”, the T/C is 90 % of control.

For `CN=NNc1ccccc1`, the T/C (endpoint: mean survival time, dose: 75.0 mg/kg/injection, schedule: Q01DX001 (ip), vehicle: saline) was 117 % of control; the T/C (endpoint: mean survival time, dose: 75.0 mg/kg/injection, schedule: Q04DX003 (ip), vehicle: saline with Tween-80) is 122 % of control; the T/C under setting [1] was 119 % of control; the T/C (endpoint: mean survival time, dose: 150.0 mg/kg/injection, schedule: Q04DX003 (ip), vehicle: saline with Tween-80) is 153 % of control; the T/C (endpoint: mean survival time, dose: 225.0 mg/kg/injection, schedule: Q04DX003 (ip), vehicle: saline with Tween-80) is 86 % of control.
